Source: the NIST ThermoML archive (doi:10.1016/j.tca.2011.02.004)

Experiments:
[1] = xn = mol fraction of the nth substance listed; settings: 101 kPa, Liquid; for speed of sound: Linear variable-path acoustic interferometer; for mass density: Pycnometric method
[2] = 101.3 kPa, Liquid; for speed of sound: Linear variable-path acoustic interferometer; for mass density: Pycnometric method

CC(C)OC(C)C [diisopropyl ether] + CN(C)c1ccccc1
[1], x1 = 1
Settings | mass density [kg/m3] | speed of sound [m/s]
303.15 K | 712.9 | 976
313.15 K | 702.5 | 932
323.15 K | 691.9 | 889

CCN(CC)c1ccccc1 [N,N-diethylaniline] + CC(C)OC(C)C
[1]
Settings | mass density, 303.15 K [kg/m3] | mass density, 313.15 K [kg/m3] | mass density, 323.15 K [kg/m3] | speed of sound, 303.15 K [m/s] | speed of sound, 313.15 K [m/s] | speed of sound, 323.15 K [m/s]
x2 = 0 | 926.2 | 917.6 | 909.2 | 1434 | 1396 | 1358
x2 = 0.078 | 914.4 | 906.8 | 899 | 1403 | 1367 | 1332
x2 = 0.1606 | 901 | 893.6 | 886.6 | 1370 | 1336 | 1302
x2 = 0.2581 | 884 | 876.7 | 870.2 | 1330 | 1296 | 1261
x2 = 0.3421 | 868.5 | 861.1 | 854.7 | 1295 | 1260 | 1224
x2 = 0.4336 | 850.7 | 843 | 836.7 | 1255 | 1218 | 1182
x2 = 0.5341 | 829.8 | 822.1 | 815.7 | 1209 | 1171 | 1134
x2 = 0.6457 | 804.7 | 797.1 | 790.6 | 1156 | 1117 | 1080
x2 = 0.7545 | 778.3 | 770.6 | 764 | 1103 | 1063 | 1023
x2 = 0.8762 | 746.7 | 738.3 | 730.8 | 1042 | 1000 | 958

CC(C)OC(C)C [diisopropyl ether] + CCN(CC)c1ccccc1
[1], x1 = 1
Settings | mass density [kg/m3] | speed of sound [m/s]
303.15 K | 712.9 | 976
313.15 K | 702.5 | 932
323.15 K | 691.9 | 889

C1CCOC1 [tetrahydrofuran] + CN(C)c1ccccc1
[1], x1 = 1
Settings | mass density [kg/m3] | speed of sound [m/s]
303.15 K | 876.9 | 1254
313.15 K | 865.7 | 1207
323.15 K | 854.8 | 1165

CN(C)c1ccccc1 [N,N-dimethylaniline]
[2]
Settings | mass density [kg/m3] | speed of sound [m/s]
303.15 K | 948.4 | 1468
313.15 K | 939.8 | 1431
323.15 K | 931.5 | 1393

CCN(CC)c1ccccc1 [N,N-diethylaniline] + C1CCOC1
[1]
Settings | mass density, 303.15 K [kg/m3] | mass density, 313.15 K [kg/m3] | mass density, 323.15 K [kg/m3] | speed of sound, 303.15 K [m/s] | speed of sound, 313.15 K [m/s] | speed of sound, 323.15 K [m/s]
x2 = 0 | 926.2 | 917.6 | 909.2 | 1434 | 1396 | 1358
x2 = 0.0933 | 923.9 | 915.7 | 907.8 | 1428 | 1390 | 1354
x2 = 0.1907 | 921.2 | 913.3 | 905.7 | 1418 | 1379 | 1343
x2 = 0.2899 | 918.2 | 910.4 | 903 | 1405 | 1366 | 1330
x2 = 0.3879 | 914.9 | 907.1 | 899.6 | 1390 | 1351 | 1315
x2 = 0.4892 | 910.8 | 903.2 | 895.3 | 1372 | 1333 | 1296
x2 = 0.5937 | 906 | 898.4 | 890.5 | 1352 | 1312 | 1275
x2 = 0.6904 | 900.9 | 893.1 | 885.1 | 1331 | 1291 | 1252
x2 = 0.7948 | 894.3 | 886.2 | 878.1 | 1307 | 1265 | 1226
x2 = 0.8935 | 886.9 | 877.9 | 869.2 | 1283 | 1240 | 1200

C1CCOC1 [tetrahydrofuran]
[2]
Settings | mass density [kg/m3] | speed of sound [m/s]
303.15 K | 876.9 | 1254
313.15 K | 865.7 | 1207
323.15 K | 854.8 | 1165

C1CCOC1 [tetrahydrofuran] + CCN(CC)c1ccccc1
[1], x1 = 1
Settings | mass density [kg/m3] | speed of sound [m/s]
303.15 K | 876.9 | 1254
313.15 K | 865.7 | 1207
323.15 K | 854.8 | 1165

CC(C)OC(C)C [diisopropyl ether]
[2]
Settings | mass density [kg/m3] | speed of sound [m/s]
303.15 K | 712.9 | 976
313.15 K | 702.5 | 932
323.15 K | 691.9 | 889

CN(C)c1ccccc1 [N,N-dimethylaniline] + C1CCOC1
[1]
Settings | mass density, 303.15 K [kg/m3] | mass density, 313.15 K [kg/m3] | mass density, 323.15 K [kg/m3] | speed of sound, 303.15 K [m/s] | speed of sound, 313.15 K [m/s] | speed of sound, 323.15 K [m/s]
x2 = 0 | 948.4 | 939.8 | 931.5 | 1468 | 1431 | 1393
x2 = 0.0683 | 945.8 | 937.5 | 929.5 | 1459 | 1424 | 1391
x2 = 0.1883 | 940.8 | 932.9 | 925.2 | 1439 | 1408 | 1376
x2 = 0.2797 | 936.7 | 928.6 | 921.1 | 1423 | 1391 | 1359
x2 = 0.389 | 931 | 922.9 | 915.3 | 1403 | 1370 | 1337
x2 = 0.4723 | 926.2 | 918 | 910.2 | 1387 | 1354 | 1319
x2 = 0.5757 | 919.3 | 911.1 | 903 | 1365 | 1331 | 1294
x2 = 0.6813 | 910.9 | 902.8 | 894.4 | 1340 | 1304 | 1267
x2 = 0.7866 | 901.1 | 893.2 | 884.2 | 1314 | 1276 | 1238
x2 = 0.8909 | 890.1 | 881.4 | 871.7 | 1287 | 1246 | 1206

CN(C)c1ccccc1 [N,N-dimethylaniline] + CC(C)OC(C)C
[1]
Settings | mass density, 303.15 K [kg/m3] | mass density, 313.15 K [kg/m3] | mass density, 323.15 K [kg/m3] | speed of sound, 303.15 K [m/s] | speed of sound, 313.15 K [m/s] | speed of sound, 323.15 K [m/s]
x2 = 0 | 948.4 | 939.8 | 931.5 | 1468 | 1431 | 1393
x2 = 0.0741 | 932.6 | 924.8 | 916.9 | 1430 | 1396 | 1360
x2 = 0.1589 | 914 | 906.5 | 898.6 | 1385 | 1353 | 1318
x2 = 0.2428 | 895.3 | 887.5 | 879.6 | 1342 | 1311 | 1277
x2 = 0.3355 | 874.3 | 866.2 | 858.3 | 1296 | 1262 | 1229
x2 = 0.4294 | 852.6 | 844.2 | 836.3 | 1250 | 1214 | 1182
x2 = 0.5338 | 827.8 | 819.2 | 811.5 | 1199 | 1161 | 1128
x2 = 0.6362 | 802.8 | 794.1 | 786.4 | 1149 | 1112 | 1078
x2 = 0.7466 | 775.2 | 766.4 | 758.5 | 1096 | 1059 | 1024
x2 = 0.8676 | 744.8 | 735.7 | 726.9 | 1038 | 1000 | 961

CCN(CC)c1ccccc1 [N,N-diethylaniline]
[2]
Settings | mass density [kg/m3] | speed of sound [m/s]
303.15 K | 926.2 | 1434
313.15 K | 917.6 | 1396
323.15 K | 909.2 | 1358
